The values that follow come from patent US8519155B2, “Choline and tromethamine salt of licofelone” (c-a-i-r biosciences GmbH, priority 2008, dated 2013).

SMILES strings stand for the structures. In brackets after ≈: the same amount, converted by molar mass. Counter-ions that a name gives are not always drawn.

Type in all cases: physicochemical
Data set [1] is described as follows: Solubility in 2-pyrrolidone. As to conditions: 25° C., mixed for 30 min, Licofelone in supernatant by HPLC. The procedure:
Approx. 500 mg Licofelone (free acid) or the corresponding salt (examples 1A and 2) were suspended in 1 ml 2-pyrrolidone and mixed for 30 min. The temperature was maintained at 25° C. After centrifugation the concentration of Licofelone in the supernatant was determined by HPLC with UV detection.

Data set [2] can be described thus: Storage stability at elevated temperatures (sum of known and unknown impurities). As for the experimental part:
The raw materials (a) Licofelone, (b) Licofelone choline salt (example 1A) and (c) Licofelone tromethamine salt (example 2) were stored in open containers at 40, 50, 60 and 70° C. as well as at 40° C. with 75% relative humidity. Samples were analyzed after storage periods of 4 and 8 weeks. A validated method was applied for quantification of the five known impurities as well as of unknown impurities.

Data set [3] is described as follows: Solubility in Fasted State Simulated Intestinal Fluid (FaSSIF). The note with it: after 15 min, HPLC; for solubility in 30 ml FaSSIF, conc.: 30 ml FaSSIF pH 6.5, approx. 50 mg (as free acid); for solubility in 100 ml FaSSIF, conc.: 100 ml FaSSIF pH 6.5, approx. 50 mg (as free acid). The procedure: FaSSIF was prepared according to the literature (e.g. Marques M, Dissolution Technologies, May 2004). […] The pH value was adjusted to 6.5 using 1 N NaOH. The ready-to-use FaSSIF was prepared by dissolving 3.3 g sodium taurocholate in 500 ml blank FaSSIF. Then, 11.8 ml of a solution of 100 mg/ml lecithin in dichloromethane was added and the thereafter, the solvent dichloromethane was removed under vacuum at 40° C. Thereafter the clear solution was transferred into a graduated 2 l flask and made up to volume with blank FaSSIF.
Solubility studies were performed with Licofelone (free acid), Licofelone tromethamol salt (example 2) and Licofelone choline salt (example 1A). The test articles were placed in a beaker, FaSSIF and a magnetic stirring bar were added and the mixture was stirred using a magnetic stirrer. After 15 min, samples were withdrawn, filtered and the clear filtrate was analyzed by HPLC to determine the concentration of Licofelone.
The dissolution test was performed in 100 ml FaSSIF and 30 ml FaSSIF. The lower volume was selected in order to simulate the physiological ratio between drug and intestinal fluid volume.

Where [4] appears, read: stored at elevated temperatures for several weeks.

In general, solubility refers to how much of the substance goes into solution per volume. Consider `CC1(C)Cc2c(-c3ccccc3)c(-c3ccc(Cl)cc3)c(CC(=O)O)n2C1` [Licofelone (free acid), 6-(4-chlorophenyl)-2,2-dimethyl-7-phenyl-2,3-dihydro-1H-pyrrolizin-5-ylacetic acid, reference compound], for which the solubility in data set [1] turned out to be 47000 µg/mL (≈ 124000 µM). In addition, the stability on storage result in data set [2] (setting [4]) is “undergoes degradation”. In addition, in data set [3], the “solubility in 30 ml FaSSIF, conc.” value was 7 µg/mL (≈ 18.4 µM) and the “solubility in 100 ml FaSSIF, conc.” value is 7 µg/mL (≈ 18.4 µM).

`CC1(C)Cc2c(-c3ccccc3)c(-c3ccc(Cl)cc3)c(CC(=O)O)n2C1` [Licofelone choline salt, 6-(4-chlorophenyl)-2,2-dimethyl-7-phenyl-2,3-dihydro-1H-pyrrolizin-5-ylacetic acid choline salt] displayed a solubility in data set [1] of 274000 µg/mL. The stability on storage entry in data set [2] (stored at moderately elevated temperatures for several weeks) was “more stable than the free acid”. Moreover, in data set [3], the “solubility in 30 ml FaSSIF, conc.” value is 222 µg/mL and the “solubility in 100 ml FaSSIF, conc.” value is 228 µg/mL.

Take `CC1(C)Cc2c(-c3ccccc3)c(-c3ccc(Cl)cc3)c(CC(=O)O)n2C1` [Licofelone tromethamine salt, 6-(4-chlorophenyl)-2,2-dimethyl-7-phenyl-2,3-dihydro-1H-pyrrolizin-5-ylacetic acid tromethamine salt]: the solubility in data set [1] was 66000 µg/mL. Besides, in data set [2] (setting [4]), the stability on storage result is “more stable than the free acid and the choline salt”. Besides, in data set [3], the “solubility in 30 ml FaSSIF, conc.” value is 149 µg/mL and the “solubility in 100 ml FaSSIF, conc.” value is 165 µg/mL.
